Laboratory results as given in article PMC4599575 (Journal of thrombosis and haemostasis : JTH, 2015).

Key:
Test in all cases: surface plasmon resonance, protein immobilised on CM5 chip, […] Langmuir fit
Format in all cases: binding
[1] = target: GST-rVWF73-H (GST-VWF73-H) (Homo sapiens, UniProt P04275)
rADAMTS13 (rA13) = target: T1, rADAMTS13 (rA13) (Homo sapiens, UniProt Q76LX8)
T1 sequence (Q76LX8 75-1427): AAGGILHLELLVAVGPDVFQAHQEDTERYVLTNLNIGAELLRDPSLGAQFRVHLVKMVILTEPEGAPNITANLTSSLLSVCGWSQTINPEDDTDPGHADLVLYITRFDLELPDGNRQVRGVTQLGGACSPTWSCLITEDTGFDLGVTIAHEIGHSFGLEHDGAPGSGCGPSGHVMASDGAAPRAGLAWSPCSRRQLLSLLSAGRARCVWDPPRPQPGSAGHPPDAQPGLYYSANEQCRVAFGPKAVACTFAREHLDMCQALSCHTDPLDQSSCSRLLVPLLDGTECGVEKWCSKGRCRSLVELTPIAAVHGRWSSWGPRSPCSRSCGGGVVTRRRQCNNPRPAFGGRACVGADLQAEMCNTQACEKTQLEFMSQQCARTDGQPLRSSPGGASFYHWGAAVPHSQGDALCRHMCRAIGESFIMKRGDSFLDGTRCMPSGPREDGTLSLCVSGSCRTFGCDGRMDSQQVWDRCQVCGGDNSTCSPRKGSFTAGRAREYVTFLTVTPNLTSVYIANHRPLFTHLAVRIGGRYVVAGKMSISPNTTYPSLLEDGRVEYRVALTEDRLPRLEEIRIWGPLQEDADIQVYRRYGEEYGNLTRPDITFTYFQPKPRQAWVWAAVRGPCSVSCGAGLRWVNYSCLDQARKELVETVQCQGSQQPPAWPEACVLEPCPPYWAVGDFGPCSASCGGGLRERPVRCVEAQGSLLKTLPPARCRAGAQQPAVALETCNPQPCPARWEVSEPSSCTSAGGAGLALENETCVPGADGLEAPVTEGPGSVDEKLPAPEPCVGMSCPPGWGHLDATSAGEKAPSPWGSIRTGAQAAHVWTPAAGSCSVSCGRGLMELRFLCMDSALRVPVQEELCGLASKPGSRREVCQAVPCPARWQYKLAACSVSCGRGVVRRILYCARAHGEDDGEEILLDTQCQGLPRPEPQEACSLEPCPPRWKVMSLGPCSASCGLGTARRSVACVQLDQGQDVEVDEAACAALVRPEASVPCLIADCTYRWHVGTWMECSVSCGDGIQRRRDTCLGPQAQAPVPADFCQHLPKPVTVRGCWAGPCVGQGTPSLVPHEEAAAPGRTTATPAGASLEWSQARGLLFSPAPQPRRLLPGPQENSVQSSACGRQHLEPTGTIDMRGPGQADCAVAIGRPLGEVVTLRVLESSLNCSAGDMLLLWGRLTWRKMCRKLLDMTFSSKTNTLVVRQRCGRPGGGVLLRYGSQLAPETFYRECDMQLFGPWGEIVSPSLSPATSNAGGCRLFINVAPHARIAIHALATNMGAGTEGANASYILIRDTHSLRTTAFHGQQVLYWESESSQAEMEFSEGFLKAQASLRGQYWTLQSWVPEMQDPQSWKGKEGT

[2] = target: VWF (plasma-derived multimeric VWF) (Homo sapiens, UniProt P04275)
VWF (plasma-derived multimeric VWF), sequence (P04275 764-2813): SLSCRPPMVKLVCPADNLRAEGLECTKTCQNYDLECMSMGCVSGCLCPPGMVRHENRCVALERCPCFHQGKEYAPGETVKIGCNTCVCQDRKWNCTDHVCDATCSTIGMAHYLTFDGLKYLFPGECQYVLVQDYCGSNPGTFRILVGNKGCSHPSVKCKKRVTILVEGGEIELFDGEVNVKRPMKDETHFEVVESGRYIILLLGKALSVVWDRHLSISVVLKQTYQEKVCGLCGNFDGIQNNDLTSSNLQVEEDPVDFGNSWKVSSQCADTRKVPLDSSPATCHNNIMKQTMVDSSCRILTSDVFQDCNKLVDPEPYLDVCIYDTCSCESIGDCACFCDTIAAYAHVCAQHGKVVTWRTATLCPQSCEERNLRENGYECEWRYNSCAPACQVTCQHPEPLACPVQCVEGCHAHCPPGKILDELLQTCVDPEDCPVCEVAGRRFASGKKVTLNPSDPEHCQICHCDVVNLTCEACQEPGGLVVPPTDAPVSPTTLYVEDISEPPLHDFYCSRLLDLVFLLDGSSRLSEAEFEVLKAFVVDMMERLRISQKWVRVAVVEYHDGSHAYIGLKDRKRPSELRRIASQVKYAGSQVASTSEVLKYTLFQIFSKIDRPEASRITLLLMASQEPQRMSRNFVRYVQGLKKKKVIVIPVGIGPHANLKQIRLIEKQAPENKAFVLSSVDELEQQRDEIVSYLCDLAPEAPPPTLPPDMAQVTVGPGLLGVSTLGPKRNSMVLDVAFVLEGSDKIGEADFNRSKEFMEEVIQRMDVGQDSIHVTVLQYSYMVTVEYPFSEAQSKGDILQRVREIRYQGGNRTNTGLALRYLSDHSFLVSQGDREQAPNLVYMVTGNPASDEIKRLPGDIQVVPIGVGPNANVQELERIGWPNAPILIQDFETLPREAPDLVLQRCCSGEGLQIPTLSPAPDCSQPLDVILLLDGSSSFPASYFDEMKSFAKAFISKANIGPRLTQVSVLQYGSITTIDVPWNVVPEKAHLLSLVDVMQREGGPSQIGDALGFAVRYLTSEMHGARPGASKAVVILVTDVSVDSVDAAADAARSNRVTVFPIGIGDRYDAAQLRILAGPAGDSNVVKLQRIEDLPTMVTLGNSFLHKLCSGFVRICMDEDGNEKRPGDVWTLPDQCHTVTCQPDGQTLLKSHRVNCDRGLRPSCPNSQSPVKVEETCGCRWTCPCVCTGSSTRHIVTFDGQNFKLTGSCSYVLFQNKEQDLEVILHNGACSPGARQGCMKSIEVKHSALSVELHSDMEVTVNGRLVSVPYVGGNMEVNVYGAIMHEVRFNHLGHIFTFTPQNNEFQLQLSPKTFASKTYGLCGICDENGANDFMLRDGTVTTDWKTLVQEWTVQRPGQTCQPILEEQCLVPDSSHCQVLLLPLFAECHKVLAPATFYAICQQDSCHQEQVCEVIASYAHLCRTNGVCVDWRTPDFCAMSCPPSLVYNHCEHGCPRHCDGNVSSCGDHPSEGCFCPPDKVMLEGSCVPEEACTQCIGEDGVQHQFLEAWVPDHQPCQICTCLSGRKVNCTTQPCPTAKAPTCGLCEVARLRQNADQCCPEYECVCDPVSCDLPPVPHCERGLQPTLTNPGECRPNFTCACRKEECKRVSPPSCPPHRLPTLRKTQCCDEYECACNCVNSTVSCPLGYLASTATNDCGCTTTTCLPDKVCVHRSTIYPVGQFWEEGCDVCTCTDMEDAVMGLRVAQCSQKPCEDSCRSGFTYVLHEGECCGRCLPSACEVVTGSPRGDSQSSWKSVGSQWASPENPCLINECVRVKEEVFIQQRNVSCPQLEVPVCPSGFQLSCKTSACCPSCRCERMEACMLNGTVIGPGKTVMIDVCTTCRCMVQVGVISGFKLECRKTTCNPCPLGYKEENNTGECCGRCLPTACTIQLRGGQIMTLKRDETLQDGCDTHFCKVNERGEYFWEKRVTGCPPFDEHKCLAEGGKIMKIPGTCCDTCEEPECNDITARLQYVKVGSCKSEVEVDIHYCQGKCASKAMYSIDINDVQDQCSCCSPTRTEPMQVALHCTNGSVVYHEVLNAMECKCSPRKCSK

GST-rVWF73-H (GST-VWF73-H), sequence (P04275 1596-1668 limits assumed): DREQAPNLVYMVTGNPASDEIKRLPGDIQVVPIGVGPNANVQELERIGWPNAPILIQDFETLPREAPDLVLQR

Kd [1]: 57.5 ± 80.7 µM
Kd (rADAMTS13 (rA13)): 17.5 ± 4 µM
Kd [2]: 29.6 ± 40.1 µM
SMILES: C=CC1=C(C)/C(=C/c2[nH]c(Cc3[nH]c(/C=C4\NC(=O)C(C)=C4C=C)c(C)c3CCC(=O)O)c(CCC(=O)O)c2C)NC1=O [unconjugated bilirubin]
